# Assays:
# [1] = biological target: ALK tyrosine kinase receptor (Homo sapiens) (UniProt Q9UM73); conditions: Compound concentration 1000.0 nM
# [2] = biological target: Cyclin-dependent kinase 9 (Homo sapiens) (UniProt P50750); conditions: Compound concentration 1000.0 nM
# [3] = biological target: Cyclin-dependent kinase 2 (Homo sapiens) (UniProt P24941); conditions: Compound concentration 1000.0 nM
# [4] = biological target: High affinity nerve growth factor receptor (Homo sapiens) (UniProt P04629); conditions: Compound concentration 1000.0 nM
# [5] = biological target: Serine/threonine-protein kinase VRK2 (Homo sapiens) (UniProt Q86Y07); conditions: Compound concentration 1000.0 nM
# [6] = biological target: Serine/threonine-protein kinase WNK1 (Homo sapiens) (UniProt Q9H4A3); conditions: Compound concentration 1000.0 nM
# [7] = biological target: Serine/threonine-protein kinase Sgk1 (Homo sapiens) (UniProt O00141); conditions: Compound concentration 1000.0 nM
# Serine/threonine-protein kinase Sgk1 (Homo sapiens), sequence (O00141 whole entry): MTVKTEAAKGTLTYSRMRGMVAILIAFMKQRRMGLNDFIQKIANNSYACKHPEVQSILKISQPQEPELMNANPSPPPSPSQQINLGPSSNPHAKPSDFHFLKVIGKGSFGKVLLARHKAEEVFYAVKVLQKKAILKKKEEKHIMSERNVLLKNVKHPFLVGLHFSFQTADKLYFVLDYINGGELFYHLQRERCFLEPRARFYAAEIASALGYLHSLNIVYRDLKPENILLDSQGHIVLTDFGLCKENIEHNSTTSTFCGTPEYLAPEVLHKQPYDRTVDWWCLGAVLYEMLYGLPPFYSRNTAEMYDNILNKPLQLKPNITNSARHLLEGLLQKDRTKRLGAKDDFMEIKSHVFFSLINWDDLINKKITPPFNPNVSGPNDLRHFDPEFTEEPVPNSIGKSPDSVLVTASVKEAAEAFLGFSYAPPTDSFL
# [8] = biological target: Mitogen-activated protein kinase kinase kinase 2 (Homo sapiens) (UniProt Q9Y2U5); conditions: Compound concentration 1000.0 nM
# [9] = biological target: Ephrin type-B receptor 4 (Homo sapiens) (UniProt P54760); conditions: Compound concentration 1000.0 nM
# [10] = biological target: Proto-oncogene tyrosine-protein kinase ROS (Homo sapiens) (UniProt P08922); conditions: Compound concentration 1000.0 nM
# [11] = biological target: Calcium/calmodulin-dependent protein kinase type II subunit delta (Homo sapiens) (UniProt Q13557); conditions: Compound concentration 1000.0 nM
# [12] = biological target: Phosphatidylinositol 4,5-bisphosphate 3-kinase catalytic subunit gamma isoform (Homo sapiens) (UniProt P48736); conditions: Compound concentration 1000.0 nM
# [13] = biological target: Tyrosine-protein kinase Srms (Homo sapiens) (UniProt Q9H3Y6); conditions: Compound concentration 1000.0 nM
# [14] = biological target: Casein kinase I isoform gamma-2 (Homo sapiens) (UniProt P78368); conditions: Compound concentration 1000.0 nM
# Casein kinase I isoform gamma-2 (Homo sapiens), sequence (P78368 whole entry, looked up, canonical isoform): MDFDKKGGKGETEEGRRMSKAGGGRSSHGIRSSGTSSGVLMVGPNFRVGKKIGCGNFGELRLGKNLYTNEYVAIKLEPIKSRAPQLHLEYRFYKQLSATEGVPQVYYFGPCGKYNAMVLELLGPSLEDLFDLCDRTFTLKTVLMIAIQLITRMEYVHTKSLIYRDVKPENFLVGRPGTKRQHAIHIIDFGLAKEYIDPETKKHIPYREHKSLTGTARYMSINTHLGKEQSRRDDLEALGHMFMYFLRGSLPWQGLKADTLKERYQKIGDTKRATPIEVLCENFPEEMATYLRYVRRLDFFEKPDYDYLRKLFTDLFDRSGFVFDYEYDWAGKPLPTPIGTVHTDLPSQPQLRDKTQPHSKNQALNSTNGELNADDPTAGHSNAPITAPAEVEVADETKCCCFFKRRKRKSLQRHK
# [15] = biological target: Receptor-interacting serine/threonine-protein kinase 2 (Homo sapiens) (UniProt O43353); conditions: Compound concentration 1000.0 nM
# [16] = biological target: Phosphatidylinositol 4-phosphate 5-kinase type-1 gamma (Homo sapiens) (UniProt O60331); conditions: Compound concentration 1000.0 nM
# [17] = biological target: D(3) dopamine receptor (Homo sapiens) (UniProt P35462); conditions: Compound concentration 10.0 uM
# D(3) dopamine receptor (Homo sapiens), sequence (P35462 whole entry): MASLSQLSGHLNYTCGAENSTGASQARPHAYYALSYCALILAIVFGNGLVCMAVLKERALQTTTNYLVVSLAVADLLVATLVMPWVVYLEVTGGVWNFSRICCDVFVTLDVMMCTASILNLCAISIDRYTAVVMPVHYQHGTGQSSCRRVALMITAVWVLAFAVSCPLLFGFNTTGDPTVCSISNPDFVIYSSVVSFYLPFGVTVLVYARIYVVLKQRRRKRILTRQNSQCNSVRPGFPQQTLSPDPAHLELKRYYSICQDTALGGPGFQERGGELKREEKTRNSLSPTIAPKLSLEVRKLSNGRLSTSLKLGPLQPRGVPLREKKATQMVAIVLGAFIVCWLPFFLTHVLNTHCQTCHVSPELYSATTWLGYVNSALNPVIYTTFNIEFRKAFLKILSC
# [18] = system: Epidermal growth factor receptor (Homo sapiens), P00533 [UNDEFINED MUTATION]; conditions: Compound concentration 1000.0 nM
# [19] = biological target: Tyrosine-protein kinase JAK2 (Homo sapiens) (UniProt O60674); conditions: Compound concentration 1000.0 nM
# [20] = biological target: Delta-type opioid receptor (Homo sapiens) (UniProt P41143); conditions: Compound concentration 10.0 uM
# [21] = biological target: Inhibitor of nuclear factor kappa-B kinase subunit beta (Homo sapiens) (UniProt O14920); conditions: Compound concentration 1000.0 nM
# [22] = biological target: Mitogen-activated protein kinase 11 (Homo sapiens) (UniProt Q15759); conditions: Compound concentration 1000.0 nM
# [23] = biological target: Vascular endothelial growth factor receptor 3 (Homo sapiens) (UniProt P35916); conditions: Compound concentration 1000.0 nM
# [24] = biological target: Mitogen-activated protein kinase kinase kinase 7 (Homo sapiens) (UniProt O43318); conditions: Compound concentration 1000.0 nM
# [25] = biological target: Serine/threonine-protein kinase B-raf (Homo sapiens) (UniProt P15056); conditions: Compound concentration 1000.0 nM
# [26] = biological target: Dual serine/threonine and tyrosine protein kinase (Homo sapiens) (UniProt Q6XUX3); conditions: Compound concentration 1000.0 nM
# [27] = biological target: Microtubule-associated serine/threonine-protein kinase 1 (Homo sapiens) (UniProt Q9Y2H9); conditions: Compound concentration 1000.0 nM
# [28] = biological target: Mitogen-activated protein kinase kinase kinase kinase 5 (Homo sapiens) (UniProt Q9Y4K4); conditions: Compound concentration 1000.0 nM
# [29] = biological target: GABA-A receptor; anion channel (Rattus norvegicus) (UniProt O09028+P15431+P18506+P18508+P19969+P20236+P23574+P23576+P28471+P28473+P30191+P62813+P63079+P63138+Q91ZM7+Q9ES14); conditions: Compound concentration 10.0 uM
# [30] = system: Tyrosine-protein kinase ABL1 (Homo sapiens), P00519 [H396P]; conditions: Compound concentration 1000.0 nM
# [31] = biological target: Casein kinase I isoform delta (Homo sapiens) (UniProt P48730); conditions: Compound concentration 1000.0 nM
# [32] = GPCRScan assay: inhibition of GABA/PBR; parameters: species or system Rattus norvegicus; radioligand conc. used [nm] 0.3 – 2.0, parental cells brain tissue
# [33] = biological target: GABA-A receptor; alpha-1/beta-2/gamma-2 (Homo sapiens) (UniProt P14867+P47870+P18507); assay: GABAA1 (h) (alpha1,beta2,gamma2) Eurofins-Cerep binding assay; type: protein-complex assay; parameters: ligand concentration 15 nM; conditions: filed as agonist, Compound concentration 10.0 uM
# [34] = biological target: MAO-B (amine oxidase [flavin-containing] B) (Homo sapiens, UniProt P27338); assay: MAO-B (h) recombinant enzyme Eurofins-Cerep enzyme and uptake assay; parameters: incubation time 60 min, incubation temperature 37°C, substrate/stimulus/tracer D-Luciferin derivative (4 µM); conditions: probe D-Luciferin derivative (4 µM), compound concentration 10 uM, read-out: % Inhibition of Control Values (Mean n=2)
# MAO-B (amine oxidase [flavin-containing] B), sequence (P27338 whole entry): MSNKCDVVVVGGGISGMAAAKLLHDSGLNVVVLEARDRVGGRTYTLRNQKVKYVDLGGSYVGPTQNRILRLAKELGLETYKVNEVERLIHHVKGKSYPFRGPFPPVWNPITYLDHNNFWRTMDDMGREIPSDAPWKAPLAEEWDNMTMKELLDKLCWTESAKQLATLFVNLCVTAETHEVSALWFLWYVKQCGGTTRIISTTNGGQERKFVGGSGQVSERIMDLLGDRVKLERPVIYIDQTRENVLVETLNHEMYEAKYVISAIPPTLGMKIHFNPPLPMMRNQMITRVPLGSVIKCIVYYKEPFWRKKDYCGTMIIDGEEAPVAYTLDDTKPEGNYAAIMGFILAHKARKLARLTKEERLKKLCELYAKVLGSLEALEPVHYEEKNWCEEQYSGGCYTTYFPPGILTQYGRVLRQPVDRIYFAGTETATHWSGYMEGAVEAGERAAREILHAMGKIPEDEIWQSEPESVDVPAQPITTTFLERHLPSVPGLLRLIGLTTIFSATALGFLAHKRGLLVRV
# [35] = biological target: Serine/threonine-protein kinase OSR1 (Homo sapiens) (UniProt O95747); conditions: Compound concentration 1000.0 nM
# [36] = biological target: Rho-associated protein kinase 2 (Homo sapiens) (UniProt O75116); conditions: Compound concentration 1000.0 nM
# Rho-associated protein kinase 2 (Homo sapiens), sequence (O75116 whole entry, looked up): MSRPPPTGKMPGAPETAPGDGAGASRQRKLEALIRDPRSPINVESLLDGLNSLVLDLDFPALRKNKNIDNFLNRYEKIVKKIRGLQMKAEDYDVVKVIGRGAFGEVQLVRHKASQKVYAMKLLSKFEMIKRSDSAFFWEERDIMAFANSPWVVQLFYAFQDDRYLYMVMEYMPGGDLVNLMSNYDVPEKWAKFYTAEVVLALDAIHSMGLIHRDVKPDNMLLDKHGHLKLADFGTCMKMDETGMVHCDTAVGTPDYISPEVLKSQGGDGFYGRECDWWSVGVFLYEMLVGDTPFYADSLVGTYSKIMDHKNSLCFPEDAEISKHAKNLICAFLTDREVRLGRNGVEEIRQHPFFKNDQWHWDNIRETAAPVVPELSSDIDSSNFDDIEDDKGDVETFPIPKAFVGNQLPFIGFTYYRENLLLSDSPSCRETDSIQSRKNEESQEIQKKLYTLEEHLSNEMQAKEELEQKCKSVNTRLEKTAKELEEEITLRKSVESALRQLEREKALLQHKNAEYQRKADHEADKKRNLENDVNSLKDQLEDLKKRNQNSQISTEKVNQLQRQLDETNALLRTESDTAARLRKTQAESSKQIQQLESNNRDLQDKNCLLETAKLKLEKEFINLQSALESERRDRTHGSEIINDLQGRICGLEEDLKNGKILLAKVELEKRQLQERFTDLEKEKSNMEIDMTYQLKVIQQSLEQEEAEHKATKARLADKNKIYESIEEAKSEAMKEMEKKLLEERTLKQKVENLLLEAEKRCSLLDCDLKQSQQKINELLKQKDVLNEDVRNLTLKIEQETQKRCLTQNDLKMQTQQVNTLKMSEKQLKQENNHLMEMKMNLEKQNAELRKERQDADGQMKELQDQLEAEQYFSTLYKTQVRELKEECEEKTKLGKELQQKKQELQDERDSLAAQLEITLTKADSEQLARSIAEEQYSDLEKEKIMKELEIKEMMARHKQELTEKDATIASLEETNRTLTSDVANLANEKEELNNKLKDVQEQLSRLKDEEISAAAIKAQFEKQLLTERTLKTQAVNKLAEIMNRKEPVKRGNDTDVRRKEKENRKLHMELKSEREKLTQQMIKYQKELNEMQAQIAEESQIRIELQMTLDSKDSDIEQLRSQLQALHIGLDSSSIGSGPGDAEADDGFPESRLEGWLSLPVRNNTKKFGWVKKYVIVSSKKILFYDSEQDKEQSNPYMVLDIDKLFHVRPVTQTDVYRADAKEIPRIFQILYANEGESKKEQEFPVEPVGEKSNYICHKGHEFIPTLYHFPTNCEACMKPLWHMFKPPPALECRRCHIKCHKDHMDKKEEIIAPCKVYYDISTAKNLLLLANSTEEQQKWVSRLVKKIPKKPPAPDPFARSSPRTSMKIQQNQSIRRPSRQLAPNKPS
# [37] = biological target: Bone morphogenetic protein receptor type-1B (Homo sapiens) (UniProt O00238); conditions: Compound concentration 1000.0 nM
# [38] = biological target: Serine/threonine-protein kinase Nek4 (Homo sapiens) (UniProt P51957); conditions: Compound concentration 1000.0 nM
# [39] = biological target: Transient receptor potential cation channel subfamily M member 6 (Homo sapiens) (UniProt Q9BX84); conditions: Compound concentration 1000.0 nM
# ALK tyrosine kinase receptor (Homo sapiens), sequence (Q9UM73 19-1620 limits assumed): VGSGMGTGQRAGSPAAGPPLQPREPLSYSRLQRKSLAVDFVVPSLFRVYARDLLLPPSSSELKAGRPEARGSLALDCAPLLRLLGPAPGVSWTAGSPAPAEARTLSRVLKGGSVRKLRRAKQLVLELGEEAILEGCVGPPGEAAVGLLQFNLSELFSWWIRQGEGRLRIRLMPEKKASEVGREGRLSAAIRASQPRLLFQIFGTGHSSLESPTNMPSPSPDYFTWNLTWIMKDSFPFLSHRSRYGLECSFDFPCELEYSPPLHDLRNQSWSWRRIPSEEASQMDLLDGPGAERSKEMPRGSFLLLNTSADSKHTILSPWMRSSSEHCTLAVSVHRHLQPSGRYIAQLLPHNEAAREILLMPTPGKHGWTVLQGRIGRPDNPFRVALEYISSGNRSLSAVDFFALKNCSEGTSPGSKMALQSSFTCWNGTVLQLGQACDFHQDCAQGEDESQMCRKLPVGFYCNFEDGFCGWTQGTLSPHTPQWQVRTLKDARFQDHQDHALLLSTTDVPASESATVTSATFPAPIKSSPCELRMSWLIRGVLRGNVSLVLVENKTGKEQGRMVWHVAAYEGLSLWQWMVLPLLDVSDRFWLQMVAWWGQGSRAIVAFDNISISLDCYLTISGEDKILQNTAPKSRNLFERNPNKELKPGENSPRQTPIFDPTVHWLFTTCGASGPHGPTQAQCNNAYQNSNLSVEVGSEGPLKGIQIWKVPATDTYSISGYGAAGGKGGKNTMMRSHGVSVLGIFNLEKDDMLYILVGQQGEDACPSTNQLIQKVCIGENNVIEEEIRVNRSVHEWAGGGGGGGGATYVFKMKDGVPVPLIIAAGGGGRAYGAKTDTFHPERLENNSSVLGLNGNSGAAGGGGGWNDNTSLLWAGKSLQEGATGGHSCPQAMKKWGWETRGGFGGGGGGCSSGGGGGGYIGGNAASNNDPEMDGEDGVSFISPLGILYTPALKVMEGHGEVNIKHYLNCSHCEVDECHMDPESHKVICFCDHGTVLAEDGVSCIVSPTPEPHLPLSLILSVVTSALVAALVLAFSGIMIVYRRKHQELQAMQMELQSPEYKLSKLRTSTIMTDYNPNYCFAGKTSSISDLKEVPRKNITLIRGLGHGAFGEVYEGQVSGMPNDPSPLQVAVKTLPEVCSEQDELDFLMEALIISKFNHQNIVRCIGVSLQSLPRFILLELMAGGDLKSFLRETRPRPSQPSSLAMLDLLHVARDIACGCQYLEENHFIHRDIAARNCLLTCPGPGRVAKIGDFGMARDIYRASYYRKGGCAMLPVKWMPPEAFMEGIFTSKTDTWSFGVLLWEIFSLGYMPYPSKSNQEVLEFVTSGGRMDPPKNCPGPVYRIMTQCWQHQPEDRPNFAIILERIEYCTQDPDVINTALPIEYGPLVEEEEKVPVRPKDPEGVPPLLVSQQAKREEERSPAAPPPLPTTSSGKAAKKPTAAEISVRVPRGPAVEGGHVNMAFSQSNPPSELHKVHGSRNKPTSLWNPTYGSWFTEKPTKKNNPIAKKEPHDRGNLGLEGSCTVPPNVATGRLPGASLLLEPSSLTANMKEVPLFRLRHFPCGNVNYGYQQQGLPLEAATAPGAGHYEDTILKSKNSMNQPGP
Structure (SMILES),residual activity [1],residual activity [2],residual activity [3],residual activity [4],residual activity [5],residual activity [6],residual activity [7],residual activity [8],residual activity [9],residual activity [10],residual activity [11],residual activity [12],residual activity [13],residual activity [14],residual activity [15],residual activity [16],inhibition [17],residual activity [18],residual activity [19],inhibition [20],other results
COc1ccc2c(c1)O[C@H](c1ccc(OC)c(OC)c1)C[C@@H]2NC(=O)C1(c2ccc3c(c2)OC(F)(F)O3)CC1 [A-1596584],100%,78%,100%,100%,82%,100%,100%,91%,88%,73%,100%,74%,87%,95%,100%,100%,-9.23%,98%,98%,-9.84%,"residual activity [21]: 97%; residual activity [22]: 93%; residual activity [23]: 97%; residual activity [24]: 100%; residual activity [25]: 92%; residual activity [26]: 94%; residual activity [27]: 100%; residual activity [28]: 100%; inhibition [29]: 11.1%; residual activity [30]: 100%; residual activity [31]: 92%; Ki [32]: 218 nM; pKi [32]: 6.66; % Inhibition of Control Specific Binding (Mean n=2) [33]: -86.2%; inhibition at 60 min, 10 µM [34]: 16.7%; residual activity [35]: 98%; residual activity [36]: 88%; residual activity [37]: 100%; residual activity [38]: 86%; residual activity [39]: 84%"
COc1ccc2c(c1)O[C@@H](c1ccc(OC)c(OC)c1)C[C@H]2NC(=O)C1(c2ccc3c(c2)OC(F)(F)O3)CC1 [A-1596586],100%,89%,99%,100%,67%,100%,85%,86%,91%,97%,91%,74%,94%,88%,94%,92%,-1.53%,100%,75%,-7.29%,"residual activity [21]: 95%; residual activity [22]: 92%; residual activity [23]: 91%; residual activity [24]: 100%; residual activity [25]: 100%; residual activity [26]: 76%; residual activity [27]: 100%; residual activity [28]: 100%; inhibition [29]: 2.64%; residual activity [30]: 85%; residual activity [31]: 100%; Ki [32]: 19.6 nM; pKi [32]: 7.71; % Inhibition of Control Specific Binding (Mean n=2) [33]: -27.5%; inhibition at 60 min, 10 µM [34]: 11.9%; residual activity [35]: 90%; residual activity [36]: 78%; residual activity [37]: 71%; residual activity [38]: 75%; residual activity [39]: 82%"
